Read-outs that look alike come from different tables or passages of the source.
Key:
FAAH = FAAH (Homo sapiens (Human), UniProt O00519); assay: biochemical; settings: for inhibition at 1 µM: read-out: FAAH (human) % inh. 1 μM
MAGL = MAGL (Homo sapiens (Human), UniProt Q99685); assay: biochemical; settings: for inhibition at 1 µM: read-out: MAGL (human) % inh. 1 μM

| SMILES | inhibition at 1 µM (FAAH) | IC50 (FAAH; read-out: FAAH (human) IC50) | inhibition at 1 µM (MAGL) | IC50 (MAGL; read-out: MAGL (human) IC50) | IC50 (FAAH) | IC50 (MAGL) |
| --- | --- | --- | --- | --- | --- | --- |
| O=C(Oc1cncc(C(F)(F)F)c1)N1CCC2(CC1)CC(Oc1cccc(C(F)(F)F)c1)C2 [Example 1, 5-(Trifluoromethyl)pyridin-3-yl 2-(3-(trifluoromethyl)phenoxy)-7-azaspiro[3.5]nonane-7-carboxylate] | > 75% | < 100 nM | > 75% | < 100 nM | – | – |
| O=C(Oc1cncc(C(F)(F)F)c1)N1CCC2(CC1)CN(Cc1ccc(Oc3cccc(Cl)c3)cc1)C2 [Example 2, 5-(Trifluoromethyl)pyridin-3-yl 2-(4-(3-chlorophenoxy)benzyl)-2,7-diazaspiro[3.5]nonane-7-carboxylate] | – | – | – | 100 to 1000 nM | 1000 to 10000 nM | – |
| NC(=O)c1cncc(OC(=O)N2CCC3(CCN(Cc4cc(Cl)cc(C(F)(F)F)c4)C3)CC2)c1 [Example 3, 5-Carbamoylpyridin-3-yl 2-(3-chloro-5-(trifluoromethyl)benzyl)-2,8-diazaspiro[4.5]decane-8-carboxylate] | > 75% | < 100 nM | > 75% | < 100 nM | – | – |
| NC(=O)c1cncc(OC(=O)N2CCC3(CC2)CN(Cc2cccc(Oc4ccc(Cl)cc4)c2)C3)c1 [Example 5, 5-Carbamoylpyridin-3-yl 2-(3-(4-chlorophenoxy)benzyl)-2,7-diazaspiro[3.5]nonane-7-carboxylate] | > 75% | < 100 nM | > 75% | < 100 nM | – | – |
| O=C(Oc1cncc(C(F)(F)F)c1)N1CCC2(CC1)CN(Cc1ccc(Oc3ccccc3Cl)cc1)C2 [Example 8, 5-(Trifluoromethyl)pyridin-3-yl 2-(4-(2-chlorophenoxy)benzyl)-2,7-diazaspiro[3.5]nonane-7-carboxylate] | – | 100 to 1000 nM | – | – | – | < 100 nM |
| O=C(Oc1cncc(C(F)(F)F)c1)N1CCC2(CC1)CN(Cc1cccc(Oc3ccccc3Cl)c1)C2 [Example 9, 5-(Trifluoromethyl)pyridin-3-yl 2-(3-(2-chlorophenoxy)benzyl)-2,7-diazaspiro[3.5]nonane-7-carboxylate] | – | 100 to 1000 nM | – | 100 to 1000 nM | – | – |
| O=C(Oc1cncc(C(F)(F)F)c1)N1CCC2(CC1)CN(Cc1cccc(Oc3cccc(Cl)c3)c1)C2 [Example 10, 5-(Trifluoromethyl)pyridin-3-yl 2-(3-(3-chlorophenoxy)benzyl)-2,7-diazaspiro[3.5]nonane-7-carboxylate] | – | < 100 nM | – | < 100 nM | – | – |
| O=C(Oc1cncc(C(F)(F)F)c1)N1CCC2(CC1)CN(Cc1cccc(Oc3cncnc3)c1)C2 [Example 11, 5-(Trifluoromethyl)pyridin-3-yl 2-(3-(pyrimidin-5-yloxy)benzyl)-2,7-diazaspiro[3.5]nonane-7-carboxylate] | – | 100 to 1000 nM | – | 100 to 1000 nM | – | – |
| O=C(Oc1cncc(C(F)(F)F)c1)N1CCC2(CC1)CN(Cc1cccc(Oc3cccc(C(F)(F)F)n3)c1)C2 [Example 12, 5-(Trifluoromethyl)pyridin-3-yl 2-(3-((6-(trifluoromethyl)pyridin-2-yl)oxy)benzyl)-2,7-diazaspiro[3.5]nonane-7-carboxylate] | 50 to 75% | – | > 75% | – | – | – |
| O=C(Oc1cncc(C(F)(F)F)c1)N1CCC2(CC1)CN(Cc1cccc(Oc3ccccc3Cl)c1Cl)C2 [Example 13, 5-(Trifluoromethyl)pyridin-3-yl 2-(2-chloro-3-(2-chlorophenoxy)benzyl)-2,7-diazaspiro[3.5]nonane-7-carboxylate] | 50 to 75% | – | > 75% | – | – | – |
| O=C(Oc1cncc(C(F)(F)F)c1)N1CCC2(CC1)CN(Cc1ccc(Cl)c(Oc3ccccc3)c1Cl)C2 [Example 14, 5-(Trifluoromethyl)pyridin-3-yl 2-(2,4-dichloro-3-phenoxybenzyl)-2,7-diazaspiro[3.5]nonane-7-carboxylate] | 50 to 75% | – | > 75% | – | – | – |
| CC1CCCN1c1ccc(CN2CCN(C(=O)Oc3cncc(C(N)=O)c3)CC2)c(OC(F)(F)F)c1 (stereo not shown) [Example 17, 5-Carbamoylpyridin-3-yl 4-(4-(2-methylpyrrolidin-1-yl)-2-(trifluoromethoxy)benzyl)piperazine-1-carboxylate] | > 75% | 100 to 1000 nM | > 75% | – | – | < 100 nM |
| Cc1ncc(C#N)cc1OC(=O)N1CCN(Cc2cccc(C(F)(F)F)c2C)C[C@H]1C [Example 21, 5-Cyano-2-methylpyridin-3-yl (R)-2-methyl-4-(2-methyl-3-(trifluoromethyl)benzyl)piperazine-1-carboxylate] | > 75% | 100 to 1000 nM | 25 to 50% | – | – | 1000 to 10000 nM |
| CC(C)Oc1cccc(CN2CC3(CCN(C(=O)Oc4cncc(C(F)(F)F)c4)CC3)C2)c1 [Example 22, 5-(Trifluoromethyl)pyridin-3-yl 2-(3-isopropoxybenzyl)-2,7-diazaspiro[3.5]nonane-7-carboxylate] | 50 to 75% | – | 25 to 50% | – | – | – |
| O=C(Oc1cncc(C(F)(F)F)c1)N1CCC2(CC1)CN(Cc1cc(Cl)cc(Oc3nc4ccccc4s3)c1)C2 [Example 23, 5-(Trifluoromethyl)pyridin-3-yl 2-(3-(benzo[d]thiazol-2-yloxy)-5-chlorobenzyl)-2,7-diazaspiro[3.5]nonane-7-carboxylate] | > 75% | < 100 nM | > 75% | < 100 nM | – | – |
| CC(C)Oc1cc(Cl)cc(CN2CC3(CCN(C(=O)Oc4cncc(C(F)(F)F)c4)CC3)C2)c1 [Example 24, 5-(Trifluoromethyl)pyridin-3-yl 2-(3-chloro-5-isopropoxybenzyl)-2,7-diazaspiro[3.5]nonane-7-carboxylate] | > 75% | – | > 75% | – | – | – |
| O=C(Oc1cncc(C(F)(F)F)c1)N1CCC2(CC1)CC(Oc1cc(Cl)cc(Cl)c1)C2 [Example 25, 5-(Trifluoromethyl)pyridin-3-yl 2-(3,5-dichlorophenoxy)-7-azaspiro[3.5]nonane-7-carboxylate] | > 75% | 100 to 1000 nM | > 75% | – | – | < 100 nM |
| O=C(Oc1cncc(C(F)(F)F)c1)N1CCC2(CC1)CC(Oc1cccc(C(=O)N3CCCC3)c1)C2 [Example 26, 5-(Trifluoromethyl)pyridin-3-yl 2-(3-(pyrrolidine-1-carbonyl)phenoxy)-7-azaspiro[3.5]nonane-7-carboxylate] | > 75% | 100 to 1000 nM | > 75% | – | – | < 100 nM |
| O=C(Oc1cncc(C(F)(F)F)c1)N1CCC2(CC1)CC(Oc1cc(Cl)ccc1Cl)C2 [Example 27, 5-(Trifluoromethyl)pyridin-3-yl 2-(2,5-dichlorophenoxy)-7-azaspiro[3.5]nonane-7-carboxylate] | > 75% | – | > 75% | – | – | – |
| O=C(Oc1cncc(C(F)(F)F)c1)N1CCC2(CC1)CC(Oc1ccc(-c3ccccc3)cc1)C2 [Example 28, 5-(Trifluoromethyl)pyridin-3-yl 2-([1,1′-biphenyl]-4-yloxy)-7-azaspiro[3.5]nonane-7-carboxylate] | > 75% | < 100 nM | > 75% | < 100 nM | – | – |
| O=C(Oc1cncc(C(F)(F)F)c1)N1CCC2(CC1)CC(Oc1cccc(COc3ccc(Cl)cc3)c1)C2 [Example 29, 5-(Trifluoromethyl)pyridin-3-yl 2-(3-((4-chlorophenoxy)methyl)phenoxy)-7-azaspiro[3.5]nonane-7-carboxylate] | > 75% | – | > 75% | 100 to 1000 nM | < 100 nM | – |
| O=C(Oc1cncc(C(F)(F)F)c1)N1CCC2(CC1)CN(Cc1ccc(Oc3ccc(Cl)cc3)cc1)C2 [Example 30, 5-(Trifluoromethyl)pyridin-3-yl 2-(4-(4-chlorophenoxy)benzyl)-2,7-diazaspiro[3.5]nonane-7-carboxylate] | – | – | – | 100 to 1000 nM | 1000 to 10000 nM | – |
| O=C(Oc1cncc(C(F)(F)F)c1)N1CCC2(CC1)CN(Cc1cccc(Oc3ccc(Cl)cc3)c1)C2 [Example 31, 5-(Trifluoromethyl)pyridin-3-yl 2-(3-(4-chlorophenoxy)benzyl)-2,7-diazaspiro[3.5]nonane-7-carboxylate] | – | – | – | 100 to 1000 nM | < 100 nM | – |
| O=C(Oc1cncc(C(F)(F)F)c1)N1CCC2(CC1)CN(Cc1cccc(Oc3ccnnc3)c1)C2 [Example 33, 5-(Trifluoromethyl)pyridin-3-yl 2-(3-(pyridazin-4-yloxy)benzyl)-2,7-diazaspiro[3.5]nonane-7-carboxylate] | 25 to 50% | – | 50 to 75% | – | – | – |
| O=C(Oc1cncc(C(F)(F)F)c1)N1CCC2(CC1)CN(Cc1ccc(Oc3cncnc3)cc1)C2 [Example 34, 5-(Trifluoromethyl)pyridin-3-yl 2-(4-(pyrimidin-5-yloxy)benzyl)-2,7-diazaspiro[3.5]nonane-7-carboxylate] | – | – | – | 100 to 1000 nM | 1000 to 10000 nM | – |
| O=C(Oc1cncc(C(F)(F)F)c1)N1CCC2(CC1)CN(Cc1cccc(Oc3cc(Cl)cc(Cl)c3)c1)C2 [Example 35, 5-(Trifluoromethyl)pyridin-3-yl 2-(3-(3,5-dichlorophenoxy)benzyl)-2,7-diazaspiro[3.5]nonane-7-carboxylate] | > 75% | – | > 75% | – | – | – |
| O=C(Oc1cncc(C(F)(F)F)c1)N1CCC2(CC1)CN(Cc1cccc(Oc3ccc(C(F)(F)F)cn3)c1)C2 [Example 37, 5-(Trifluoromethyl)pyridin-3-yl 2-(3-((5-(trifluoromethyl)pyridin-2-yl)oxy)benzyl)-2,7-diazaspiro[3.5]nonane-7-carboxylate] | > 75% | – | > 75% | – | – | – |
| O=C(Oc1cncc(C(F)(F)F)c1)N1CCC2(CC1)CN(Cc1cccc(Oc3ccc(C(F)(F)F)nc3)c1)C2 [Example 39, 5-(Trifluoromethyl)pyridin-3-yl 2-(3-((6-(trifluoromethyl)pyridin-3-yl)oxy)benzyl)-2,7-diazaspiro[3.5]nonane-7-carboxylate] | > 75% | 100 to 1000 nM | > 75% | 100 to 1000 nM | – | – |
| CC(C)Oc1cc(CN2CCN(C(=O)Oc3cncc(C(N)=O)c3)[C@@H](C)C2)ccc1Cl [Example 57, (S)-5-Carbamoylpyridin-3-yl 4-(4-chloro-3-isopropoxybenzyl)-2-methylpiperazine-1-carboxylate] | – | – | > 75% | – | – | – |

Source: patent US11129827B2 (priority 2017, dated 2021)
